According to patent US20070004660A1, “Synergistic Modulation of Flt3 Kinase Using Alkylquinolines and Alkylquinazolines” (priority 2005, published 2007):

Experiments:
MV4-11 cells = test: Inhibition of MV4-11 cell proliferation (CellTiterGlo, 72 h); format: cell-based; settings: Homo sapiens; 72 h growth inhibition; uncertainty ±20%
[1] = biological target: T1, isolated kinase domain of the human FLT3 receptor (a.a. 571-993) (Homo sapiens, UniProt P36888); test: FLT3 fluorescence polarization kinase assay; format: biochemical; settings: 150 uM ATP; uncertainty ±10%
T1 construct: human FLT3 receptor (a.a. 571-993)
T1 sequence (P36888 571-993): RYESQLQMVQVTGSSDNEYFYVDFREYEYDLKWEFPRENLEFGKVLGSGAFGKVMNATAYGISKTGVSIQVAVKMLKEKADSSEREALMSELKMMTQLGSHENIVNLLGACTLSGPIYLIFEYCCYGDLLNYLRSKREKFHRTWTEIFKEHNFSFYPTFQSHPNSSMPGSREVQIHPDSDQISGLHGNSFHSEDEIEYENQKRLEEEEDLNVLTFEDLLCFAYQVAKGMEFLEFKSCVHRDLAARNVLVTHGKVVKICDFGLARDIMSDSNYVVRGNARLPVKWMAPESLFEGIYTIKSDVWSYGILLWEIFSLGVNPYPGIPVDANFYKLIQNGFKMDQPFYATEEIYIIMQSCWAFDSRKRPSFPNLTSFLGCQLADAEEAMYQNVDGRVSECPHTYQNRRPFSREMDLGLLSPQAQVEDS

SMILES: O=C(Nc1ccc(N2CCCC2)cc1)N1CCC(c2ncnc3cc(N4CCNC4=O)ccc23)CC1 [Compound 178, 4-[7-(2-Oxo-imidazolidin-1-yl)-quinazolin-4-yl]-piperidine-1-carboxylic acid (4-pyrrolidin-1-yl-phenyl)-amide]
- IC50 (MV4-11 cells): 11 nM
- IC50 [1]: 10 nM

SMILES: O=C(Nc1ccc(N2CCCC2)cc1)N1CCC(c2ncnc3cc(N4CCCC4)ccc23)CC1 [Compound 179, 4-(7-Pyrrolidin-1-yl-quinazolin-4-yl)-piperidine-1-carboxylic acid (4-pyrrolidin-1-yl-phenyl)-amide]
- IC50 (MV4-11 cells): 34 nM
- IC50 [1]: 17 nM

SMILES: O=C(Nc1ccc(N2CCCC2)cc1)N1CCC(c2ncnc3cc(-n4ccnc4)ccc23)CC1 [Compound 180, 4-(7-Imidazol-1-yl-quinazolin-4-yl)-piperidine-1-carboxylic acid (4-pyrrolidin-1-yl-phenyl)-amide]
- IC50 (MV4-11 cells): 20 nM
- IC50 [1]: 6 nM

SMILES: O=C(Nc1ccc(N2CCCC2)cc1)N1CCC(c2ncnc3cc(N4CCOCC4)ccc23)CC1 [Compound 181, 4-(7-Morpholin-4-yl-quinazolin-4-yl)-piperidine-1-carboxylic acid (4-pyrrolidin-1-yl-phenyl)-amide]
- IC50 (MV4-11 cells): 9 nM
- IC50 [1]: 10 nM

SMILES: O=C(Nc1ccc(N2CCCC2)cc1)N1CCC(c2ncnc3cc(N4CCSCC4)ccc23)CC1 [Compound 182, 4-(7-Thiomorpholin-4-yl-quinazolin-4-yl)-piperidine-1-carboxylic acid (4-pyrrolidin-1-yl-phenyl)-amide]
- IC50 (MV4-11 cells): 107 nM
- IC50 [1]: 11 nM

SMILES: O=C1CN(c2ccc3c(C4CCN(C(=O)Nc5ccc(N6CCCC6)cc5)CC4)ncnc3c2)CCN1 [Compound 183, 4-[7-(3-Oxo-piperazin-1-yl)-quinazolin-4-yl]-piperidine-1-carboxylic acid (4-pyrrolidin-1-yl-phenyl)-amide]
- IC50 (MV4-11 cells): 18 nM
- IC50 [1]: 3 nM

SMILES: CN1CCN(c2ccc3c(C4CCN(C(=O)Nc5ccc(N6CCCC6)cc5)CC4)ncnc3c2)CC1=O [Compound 184, 4-[7-(4-Methyl-3-oxo-piperazin-1-yl)-quinazolin-4-yl]-piperidine-1-carboxylic acid (4-pyrrolidin-1-yl-phenyl)-amide]
- IC50 (MV4-11 cells): 58 nM
- IC50 [1]: 244 nM

SMILES: O=C(Nc1ccc(N2CCCC2)cc1)N1CCC(c2ncnc3cc(N4CCN(CCO)CC4)ccc23)CC1 [Compound 185, 4-{7-[4-(2-Hydroxy-ethyl)-piperazin-1-yl]-quinazolin-4-yl}-piperidine-1-carboxylic acid (4-pyrrolidin-1-yl-phenyl)-amide]
- IC50 (MV4-11 cells): 6 nM
- IC50 [1]: 55 nM

SMILES: COCCN1CCN(c2ccc3c(C4CCN(C(=O)Nc5ccc(N6CCCC6)cc5)CC4)ncnc3c2)CC1 [Compound 186, 4-{7-[4-(2-Methoxy-ethyl)-piperazin-1-yl]-quinazolin-4-yl}-piperidine-1-carboxylic acid (4-pyrrolidin-1-yl-phenyl)-amide]
- IC50 (MV4-11 cells): 15 nM
- IC50 [1]: 93 nM

SMILES: CCN1CCN(c2ccc3c(C4CCN(C(=O)Nc5ccc(N6CCCC6)cc5)CC4)ncnc3c2)CC1 [Compound 187, 4-[7-(4-Ethyl-piperazin-1-yl)-quinazolin-4-yl]-piperidine-1-carboxylic acid (4-pyrrolidin-1-yl-phenyl)-amide]
- IC50 (MV4-11 cells): 21 nM
- IC50 [1]: 146 nM

SMILES: O=C(Nc1ccc(N2CCCC2)cc1)N1CCC(c2ncnc3cc(OCC4CCOCC4)ccc23)CC1 [Compound 188, 4-[7-(Tetrahydro-pyran-4-ylmethoxy)-quinazolin-4-yl]-piperidine-1-carboxylic acid (4-pyrrolidin-1-yl-phenyl)-amide]
- IC50 (MV4-11 cells): 67 nM
- IC50 [1]: 386 nM

SMILES: O=C(Nc1ccc(N2CCCC2)cc1)N1CCC(c2ncnc3cc(OC4CCOCC4)ccc23)CC1 [Compound 189, 4-[7-(Tetrahydro-pyran-4-yloxy)-quinazolin-4-yl]-piperidine-1-carboxylic acid (4-pyrrolidin-1-yl-phenyl)-amide]
- IC50 (MV4-11 cells): 286 nM
- IC50 [1]: 1130 nM

SMILES: O=C(Nc1ccc(N2CCCC2)cc1)N1CCC(c2ncnc3cc(O[C@H]4CCOC4)ccc23)CC1 [Compound 190, (S)-4-[7-(Tetrahydro-furan-3-yloxy)-quinazolin-4-yl]-piperidine-1-carboxylic acid (4-pyrrolidin-1-yl-phenyl)-amide]
- IC50 (MV4-11 cells): 88 nM
- IC50 [1]: 277 nM

SMILES: O=C(Nc1ccc(N2CCCC2)cc1)N1CCC(c2ncnc3cc(O[C@@H]4CCOC4)ccc23)CC1 [Compound 191, (R)-4-[7-(Tetrahydro-furan-3-yloxy)-quinazolin-4-yl]-piperidine-1-carboxylic acid (4-pyrrolidin-1-yl-phenyl)-amide]
- IC50 (MV4-11 cells): 71 nM
- IC50 [1]: 216 nM

SMILES: O=C(Nc1ccc(N2CCCC2)cc1)N1CCC(c2ncnc3cc(N4CCN(c5ccccn5)CC4)ccc23)CC1 [Compound 192, 4-[7-(4-Pyridin-2-yl-piperazin-1-yl)-quinazolin-4-yl]-piperidine-1-carboxylic acid (4-pyrrolidin-1-yl-phenyl)-amide]
- IC50 (MV4-11 cells): 13 nM
- IC50 [1]: 2 nM

SMILES: O=C(Nc1ccc(N2CCCC2)cc1)N1CCC(c2ncnc3cc(N4CCN(c5ncccn5)CC4)ccc23)CC1 [Compound 193, 4-[7-(4-Pyrimidin-2-yl-piperazin-1-yl)-quinazolin-4-yl]-piperidine-1-carboxylic acid (4-pyrrolidin-1-yl-phenyl)-amide]
- IC50 (MV4-11 cells): 16 nM
- IC50 [1]: 4 nM

SMILES: O=C(Nc1ccc(N2CCCC2)cc1)N1CCC(c2ncnc3cc(N4CCN(c5ccncc5)CC4)ccc23)CC1 [Compound 194, 4-[7-(4-Pyridin-4-yl-piperazin-1-yl)-quinazolin-4-yl]-piperidine-1-carboxylic acid (4-pyrrolidin-1-yl-phenyl)-amide]
- IC50 (MV4-11 cells): 0.4 nM
- IC50 [1]: 20 nM

SMILES: O=C(Nc1ccc(N2CCCC2)cc1)N1CCC(c2ncnc3cc(N4CCC(F)CC4)ccc23)CC1 [Compound 195, 4-[7-(4-Fluoro-piperidin-1-yl)-quinazolin-4-yl]-piperidine-1-carboxylic acid (4-pyrrolidin-1-yl-phenyl)-amide]
- IC50 (MV4-11 cells): 17 nM
- IC50 [1]: 163 nM

SMILES: O=C(Nc1ccc(N2CCOCC2)cc1)N1CCC(c2ncnc3cc(N4CCC(F)CC4)ccc23)CC1 [Compound 196, 4-[7-(4-Fluoro-piperidin-1-yl)-quinazolin-4-yl]-piperidine-1-carboxylic acid (4-morpholin-4-yl-phenyl)-amide]
- IC50 (MV4-11 cells): 75 nM
- IC50 [1]: 291 nM

SMILES: O=C(Nc1ccc(N2CCOCC2)cc1)N1CCC(c2ncnc3cc(N4CCNC4=O)ccc23)CC1 [Compound 197, 4-[7-(2-Oxo-imidazolidin-1-yl)-quinazolin-4-yl]-piperidine-1-carboxylic acid (4-morpholin-4-yl-phenyl)-amide]
- IC50 (MV4-11 cells): 143 nM
- IC50 [1]: 1040 nM

SMILES: CCNC(=O)N1CCN(c2ccc3c(C4CCN(C(=O)Nc5ccc(N6CCCC6)cc5)CC4)ncnc3c2)CC1 [Compound 199, 4-{4-[1-(4-Pyrrolidin-1-yl-phenylcarbamoyl)-piperidin-4-yl]-quinazolin-7-yl}-piperazine-1-carboxylic acid ethylamide]
- IC50 (MV4-11 cells): 3 nM
- IC50 [1]: 28 nM

SMILES: O=C(CO)N1CCN(c2ccc3c(C4CCN(C(=O)Nc5ccc(N6CCCC6)cc5)CC4)ncnc3c2)CC1 [Compound 201, 4-{7-[4-(2-Hydroxy-acetyl)-piperazin-1-yl]-quinazolin-7-yl}-piperidine-1-carboxylic acid (4-pyrrolidin-1-yl-phenyl)-amide]
- IC50 (MV4-11 cells): 16 nM
- IC50 [1]: 17 nM
